According to patent US11713307B2, “Heteroaryl-biphenyl amides for the treatment of PD-L1 diseases” (CHEMOCENTRYX, INC., priority 2019, dated 2023):

Molecular target: human PD-L1 (Homo sapiens (Human), UniProt Q9NZQ7)
Test: Enzyme-Linked Immunosorbent Assay—ELISA (PD-1/PD-L1 binding)
Details: plates coated with human PD-L1; Human PD-1 and biotin added; absorbance at 450 nm
Procedure: 96 Well plates were coated with 1 μg/mL of human PD-L1 (obtained from R&D) in PBS overnight at 4° C. The wells were then blocked with 2% BSA in PBS (W/V) with 0.05% TWEEN-20 for 1 hour at 37° C. The plates were washed 3 times with PBS/0.05% TWEEN-20 and the compounds were serial diluted (1:5) in dilution medium and added to the ELISA plates. Human PD-1 and biotin 0.3 μg/mL (ACRO Biosystems) were added and incubated for 1 hour at 37° C. then washed 3 times with PBS/0.05% TWEEN-20. A second block was performed with 2% BSA in PBS (W/V)/0.05% TWEEN-20 for 10 min at 37° C. and the plates were washed 3 times with PBS/0.05% TWEEN-20. Streptavidin-HRP was added for 1 hour at 37° C. then the plates were washed 3 times with PBS/0.05% TWEEN-20. TMB substrate was added and reacted for 20 min at 37° C. A stop solution (2 N aqueous H2SO4) was added. The absorbance was read at 450 nm using a micro-plate spectrophotometer. The results are shown in Table 1: IC50 values are provided as follows: from 1000 to 10,000 nM (+); from 10 up to 1000 nM (++); less than 10 nM (+++).

Chain of human PD-L1 (Q9NZQ7 19-239): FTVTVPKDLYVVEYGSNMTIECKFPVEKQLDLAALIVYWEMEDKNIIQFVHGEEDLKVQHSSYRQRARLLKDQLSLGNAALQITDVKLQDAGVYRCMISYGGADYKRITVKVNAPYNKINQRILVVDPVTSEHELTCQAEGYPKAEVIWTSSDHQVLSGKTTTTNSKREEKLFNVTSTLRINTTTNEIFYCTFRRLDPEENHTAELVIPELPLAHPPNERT

Compound	IC50 [nM]
CCc1nc(-c2cccc(-c3cccc(NC(=O)c4cn(C)c(=O)n(C)c4=O)c3Cl)c2Cl)ccc1CN1CC(O)C1 [Compound 1.072]	10 to 1000
COc1cc(-c2cccc(-c3cccc(NC(=O)c4cn(C)c(=O)n(C)c4=O)c3Cl)c2Cl)ncc1CN1CC(O)C1 [Compound 1.080]	10 to 1000
COc1nc(-c2cccc(-c3cccc(NC(=O)c4cn(C)c(=O)n(C)c4=O)c3Cl)c2Cl)ccc1CNC[C@@H]1CCC(=O)N1 [Compound 1.088]	< 10
COc1nc(-c2cccc(-c3cccc(NC(=O)c4cn(C)c(=O)n(C)c4=O)c3Cl)c2Cl)ncc1CN[C@@H]1CCOC[C@@H]1O [Compound 1.089]	< 10
COc1nc(-c2cccc(-c3cccc(NC(=O)c4cn(C)c(=O)n(C)c4=O)c3Cl)c2Cl)ccc1CN1CC(O)C1 [Compound 1.090]	< 10
COc1nc(-c2cccc(-c3cccc(NC(=O)c4cn(C)c(=O)n(C)c4=O)c3Cl)c2Cl)cnc1CN1CCCC[C@H]1C(=O)O [Compound 1.091]	< 10
COc1nc(-c2cccc(-c3cccc(NC(=O)c4cn(C)c(=O)n(C)c4=O)c3C)c2Cl)ccc1CN1CC2(CCNC2=O)C1 [Compound 1.092]	< 10
COc1cc(-c2cccc(-c3cccc(NC(=O)c4cn(C)c(=O)n(C)c4=O)c3Cl)c2Cl)ncc1CNC[C@@H]1CCC(=O)N1 [Compound 1.093]	< 10
COc1nc(-c2cccc(-c3cccc(NC(=O)c4cn(C)c(=O)n(C)c4=O)c3Cl)c2Cl)cnc1CN1CCCC[C@@H]1C(=O)O [Compound 1.094]	< 10
COc1nc(-c2cccc(-c3cccc(NC(=O)c4cn(C)c(=O)n(C)c4=O)c3C)c2Cl)ccc1CN1CC(O)C1 [Compound 1.095]	< 10
COc1nc(-c2cccc(-c3cccc(NC(=O)c4cn(C)c(=O)n(C)c4=O)c3C)c2Cl)ccc1CN1CC2(CCC(=O)N2)C1 [Compound 1.096]	< 10
COc1cc(-c2cccc(-c3cccc(NC(=O)c4cn(C)c(=O)n(C)c4=O)c3Cl)c2Cl)ncc1CN[C@@H]1CCOC[C@@H]1O [Compound 1.097]	< 10
COc1nc(-c2cccc(-c3cccc(NC(=O)c4cn(C)c(=O)n(C)c4=O)c3Cl)c2Cl)cnc1CN1CC(O)C1 [Compound 1.098]	< 10
COc1nc(-c2cccc(-c3cccc(NC(=O)c4cn(C)c(=O)n(C)c4=O)c3Cl)c2Cl)cnc1CN1CC(C)(C(=O)O)C1 [Compound 1.099]	< 10
COc1nc(-c2cccc(-c3cccc(NC(=O)c4cn(C)c(=O)n(C)c4=O)c3Cl)c2Cl)cnc1CN1CC(C(=O)O)C1 [Compound 1.100]	< 10
COc1nc(-c2cccc(-c3cccc(NC(=O)c4cn(C)c(=O)n(C)c4=O)c3Cl)c2Cl)cnc1CN1CC2(CCC(=O)N2)C1 [Compound 1.101]	< 10
COc1nc(-c2cccc(-c3cccc(NC(=O)c4cn(C)c(=O)n(C)c4=O)c3Cl)c2Cl)cnc1CN1CC2(CCNC2=O)C1 [Compound 1.102]	< 10

Continued, values first:

IC50 [nM]	Compound
< 10	COc1nc(-c2cccc(-c3cccc(NC(=O)c4cccn(C)c4=O)c3Cl)c2Cl)ccc1CNC[C@@H]1CCC(=O)N1 [Compound 1.069]
< 10	COc1nc(-c2cccc(-c3cccc(NC(=O)c4cn(C)c(=O)n(C)c4=O)c3Cl)c2Cl)ccc1CN[C@@](C)(CO)C(=O)O [Compound 1.070]
< 10	CCc1nc(-c2cccc(-c3cccc(NC(=O)c4cn(C)c(=O)n(C)c4=O)c3Cl)c2Cl)ccc1CN1CC(C(=O)O)C1 [Compound 1.071]
< 10	COc1nc(-c2cccc(-c3cccc(NC(=O)c4cn(C)c(=O)n(C)c4=O)c3Cl)c2Cl)ccc1CN1CC(NS(C)(=O)=O)C1 [Compound 1.073]
< 10	COc1nc(-c2cccc(-c3cccc(NC(=O)c4cn(C)c(=O)n(C)c4=O)c3Cl)c2Cl)ccc1CN1CC[C@@H](C(=O)O)C1 [Compound 1.074]
< 10	CCc1nc(-c2cccc(-c3cccc(NC(=O)c4cn(C)c(=O)n(C)c4=O)c3Cl)c2Cl)ccc1CN[C@@H]1CCOC[C@@H]1O [Compound 1.075]
< 10	CCc1nc(-c2cccc(-c3cccc(NC(=O)c4cn(C)c(=O)n(C)c4=O)c3Cl)c2Cl)ccc1CNC[C@@H]1CCC(=O)N1 [Compound 1.076]
< 10	CCc1nc(-c2cccc(-c3cccc(NC(=O)c4cn(C)c(=O)n(C)c4=O)c3Cl)c2Cl)cnc1CNC[C@@H]1CCC(=O)N1 [Compound 1.077]
< 10	COc1nc(-c2cccc(-c3cccc(NC(=O)c4cn(C)c(=O)n(C)c4=O)c3C)c2Cl)cnc1CN[C@@H]1CCOC[C@@H]1O [Compound 1.078]
< 10	COc1nc(-c2cccc(-c3cccc(NC(=O)c4cn(C)c(=O)n(C)c4=O)c3C)c2Cl)cnc1CNC[C@@H]1CCC(=O)N1 [Compound 1.079]
< 10	COc1nc(-c2cccc(-c3cccc(NC(=O)c4cn(C)c(=O)n(C)c4=O)c3Cl)c2Cl)ncc1CNC[C@@H]1CCC(=O)N1 [Compound 1.081]
< 10	COc1nc(-c2cccc(-c3cccc(NC(=O)c4cn(C)c(=O)n(C)c4=O)c3C)c2Cl)ccc1CN1CC(C(=O)O)C1 [Compound 1.082]
< 10	COc1cc(-c2cccc(-c3cccc(NC(=O)c4cn(C)c(=O)n(C)c4=O)c3Cl)c2Cl)ncc1CN1CC(C)(C(=O)O)C1 [Compound 1.083]
< 10	COc1nc(-c2cccc(-c3cccc(NC(=O)c4cn(C)c(=O)n(C)c4=O)c3Cl)c2Cl)ccc1CN1CC(C(=O)O)C1 [Compound 1.084]
< 10	COc1nc(-c2cccc(-c3cccc(NC(=O)c4cn(C)c(=O)n(C)c4=O)c3Cl)c2Cl)ccc1CN1CC(C)(C(=O)O)C1 [Compound 1.085]
< 10	COc1cc(-c2cccc(-c3cccc(NC(=O)c4cn(C)c(=O)n(C)c4=O)c3Cl)c2Cl)ncc1CN1CC(C(=O)O)C1 [Compound 1.086]
< 10	COc1nc(-c2cccc(-c3cccc(NC(=O)c4cn(C)c(=O)n(C)c4=O)c3Cl)c2Cl)ccc1CN[C@@H]1CCOC[C@@H]1O [Compound 1.087]
